Test results from US20070031356A1, “Beta-carotene modulation of gene expression” (priority 2005, published 2007).
Several values for one entry are separate records, joined by “and”; a condition that tells them apart may be missing. Equal entries are not always repeated. Entries after “also recorded” stand apart in the source; their conditions may differ.

Experiments:
caspase-3 = assay: Caspase-3 activity (CaspACE Assay System); format: cell-based, human
Procedure: Cells were supplemented with β-carotene for 2 days and prior to UVA irradiation (270 kJ/m^2). Caspase-3 activity was determined at 5 hours after irradiation. Values are mean±standard error of an experiment with four replicates.
Caspase-3 activity 5 hours after UVA irradiation was quantified in five separate experiments using the CaspACE™ Assay System (Promega/Catalys, Switzerland).

[1] = system: HaCaT human keratinocytes; assay: Affymetrix GeneChip microarray, gene regulation by β-carotene and/or UVA; format: cell-based
Procedure: UVA exposure is thought to cause skin aging mainly by singlet oxygen (^1O2)-dependent pathways. Using microarray hybridization the effect of pretreatment with the ^1O2 quencher β-carotene (1.5 μM) on prevention of UVA-induced gene regulation in HaCaT human keratinocytes was explored.
The cell culture experiments were carried out as described (Wertz, 2004). Briefly, a subclone of passage 65 HaCaT keratinocytes, selected for differentiation capacity, was used at passages 16 to 23 after subcloning. 2×10^5 cells were seeded per 60 millimeter dish. Starting the following day, the cells were pretreated for 2 days with β-carotene at 1.5 μM, a typical concentration in human plasma after moderate dietary supplementation (Thurmann, 2002).
(§1) β-carotene-containing medium was prepared as follows. Fresh all-E-β-carotene (DSM Nutritional Products, Kaiseraugst, Switzerland) stock solution in THF (containing 0.025% BHT; Fluka Chemie AG, Switzerland) was diluted 1:2 with ethanol and added to cell culture medium to a final concentration of 1.5 μM β-carotene. The solvent concentration in the medium was 0.5% for all treatments. β-carotene-containing medium was prepared fresh for the daily medium changes.
On day 3 of the experiment, the cells were irradiated with a Hönle sun lamp Sol 500 (270 kJ/m^2; Dr. Hönle, Germany).
Five independent, factorially designed cell irradiation experiments were analyzed by microarray hybridization. For each experiment, one chip was hybridized per treatment condition. GeneChip® analysis was done as described in Siler, 2004, which is incorporated by reference as if recited in full herein. Gene regulation by β-carotene and/or UVA was calculated relative to placebo.
Changes in gene expression were included in further analysis only if the change factor was ≧0.5 or ≦−0.5, and if unpaired t-tests yielded p values ≦0.05. Upregulations by a change factor of ≧0.5 are labeled bold, downregulations by a change factor of ≦−0.5 are labeled bold italics. (Table 1.) To identify the pathways affected by the treatments functional information on the genes was retrieved from public literature databases.

[2] = cited from earlier work
[3] = β-carotene supplementation, rodents (e.g. Mathews-Roth, 1982); cited from earlier work
[4] = β-carotene concentration in culture medium during incubation; format: physicochemical; conditions: during the 24 hours of incubation, irrespective of the presence of cells
Procedure: as §1

HaCaT cells [5] = assay: TaqMan QRT-PCR of key genes; format: cell-based, human
Procedure: Cells were supplemented with β-carotene for 2 days prior to UVA irradiation (270 kJ/m^2) either in normal PBS or D2O-PBS. Gene expression 5 hours after irradiation was determined by quantitative real time polymerase chain reaction. (“QRT-PCR”). Values are geometric mean±standard error of three experiments.
Key gene regulation was confirmed in three independent cell irradiation experiments using TaqMan® QRT-PCR as described (Wertz, 2004). In these experiments, cells were pretreated with 0.5, 1.5, or 3 μM β-carotene, to analyze for dose-dependent β-carotene effects. In addition, cells were irradiated either in D2O-containing PBS or in H2O-containing PBS, to analyze for the ^1O2 inducibility of genes.

HaCaT cells [6] = conditions: cited from earlier work
[7] = UVA 270 kJ/m^2 after 1.5 μM 2 days, vs placebo
[8] = unirradiated, 1.5 μM 2 days, vs placebo
[9] = UVA 270 kJ/m^2, 5 hours after irradiation

CC1=C(/C=C/C(C)=C/C=C/C(C)=C/C=C/C=C(C)/C=C/C=C(C)/C=C/C2=C(C)CCCC2(C)C)C(C)(C)CCC1 [β-Carotene, all-E-β-carotene]
caspase-3 activity / apoptosis (caspase-3; unirradiated cells, β-carotene alone): not sufficient to induce apoptosis; also recorded: Neither UVA nor β-carotene alone activated caspase-3
caspase-3 activity (caspase-3; β-carotene 2 days then UVA 270 kJ/m^2, 5 hours after irradiation): dose-dependent induction of caspase-3 activity
BPAG1; bullous pemphigoid antigen (M69225) change factor [1, 7]: Downregulation
C-FOS (V01512) change factor [1, 7]: 1.36
ERF-2 (X78992) change factor [1, 7]: enhanced
GADD34 (U83981) change factor [1, 7]: enhanced
GADD153 (S62138) change factor [1, 7]: upregulation; also recorded: enhanced
IGF-BP 3; insulin-like growth factor-binding protein-3 gene (M35878) change factor [1, 7]: 1.73
IL6; Interleukin 6; IFNβα2a (X04430) change factor [1, 7]: enhanced
ILK; integrin-linked kinase (U40282) change factor [1, 7]: Downregulation
JUND (X56681) change factor [1, 7]: 1.83 and 1.66
KLF4; EZF (epithelial Zn finger) (U70663) change factor [1, 7]: upregulation
Lekti (AJ228139) change factor [1, 7]: upregulated
MMP10 (X07820) change factor [1, 7]: inhibited
PAR-2; proteinase activated receptor-2 (U34038) change factor [1, 7]: 1.34
TDAG51; PQ-rich protein; PHLDA1 (Z50194) change factor [1, 7]: enhanced
TRIP14; ′2-5′ oligoadenylate synthetase (AJ225089) change factor [1, 7]: 0.67
c-myc (V00568) change factor [1, 7]: 2.45
connexin 31 (AF099730) change factor [1, 7]: upregulation
connexin 45 (U03493) change factor [1, 7]: Downregulation
integrin α6 (X53586) change factor [1, 7]: Downregulation
serpinB1 (M93056) change factor [1, 7]: upregulated
number of genes regulated by co-treatment with UVA radiation and β-carotene ([1]; UVA + β-carotene): 1142 genes
UVA induction of PAR-2 ([1]; UVA-irradiated keratinocytes): further increased
UVA upregulation of IFNα/Iβ targets ([1]; UVA-irradiated keratinocytes): reduced
UVA upregulation of VEGF ([1]; UVA-irradiated keratinocytes): reduced
desmocollins gene regulation ([1]; UVA/β-carotene treatment): Downregulation
TIMP-1 gene regulation ([1]; all treatments): not influenced
UVA-regulated genes for which β-carotene enhanced the UVA effect ([1]; of 568 UVA-regulated genes): 180 genes
UVA-regulated genes for which β-carotene had no effect ([1]; of 568 UVA-regulated genes): 245 genes
UVA-regulated genes for which β-carotene reduced the UVA-induced effect ([1]; of 568 UVA-regulated genes): 143 genes
co-treatment-regulated genes not regulated by only UVA or β-carotene alone ([1]; of the 1142 genes): 610 genes
Bax gene regulation ([1]; unirradiated keratinocytes): upregulated
JUN-B gene regulation ([1]; unirradiated keratinocytes): downregulated
VEGF gene regulation ([1]; unirradiated keratinocytes): mildly downregulated
BMP2a; bone morphogenetic protein 2a (bmp-2a) (M22489) change factor [1, 8]: downregulated
BPAG1; bullous pemphigoid antigen (M69225) change factor [1, 8]: decreased
BUB1; mitotic checkpoint kinase (AF053305) change factor [1, 8]: downregulated
COX-2, cyclooxygenase-2 (U04636) change factor [1, 8]: mildly downregulated
DNA ligase III (X84740) change factor [1, 8]: downregulated
EGFR; precursor of epidermal growth factor receptor (X00588) change factor [1, 8]: downregulated
ENDOGL-2 (AB020735) change factor [1, 8]: upregulated
FRA-2 (X16706) change factor [1, 8]: downregulated
GEM (U10550) change factor [1, 8]: downregulated
HOXD4 (X59373) change factor [1, 8]: downregulated
ID-2H (D13891) change factor [1, 8]: downregulated
IGF-BP 3; insulin-like growth factor-binding protein-3 gene (M35878) change factor [1, 8]: 0.22
IL6; Interleukin 6; IFNβα2a (X04430) change factor [1, 8]: upregulated
IL18; IGIF (IFNγ inducing factor) (D49950) change factor [1, 8]: downregulated
IRF-9; p48; ISGF3γ; Interferon-stimulated transcription factor 3γ (M97935) change factor [1, 8]: −0.18
KRS-2; stress responsive serine/threonine protein kinase (U60207) change factor [1, 8]: downregulated
MMP10 (X07820) change factor [1, 8]: reduced
NCF2; p67-phox; neutrophil oxidase factor (M32011) change factor [1, 8]: downregulated
NOTCH3 (U97669) change factor [1, 8]: downregulated
NRF2, subunit beta 1 (U13045) change factor [1, 8]: downregulated
RETSDR1; retinal short-chain dehydrogenase/reductase (AF061741) change factor [1, 8]: induced
RPA; replication protein A 14kda subunit (rpa) (L07493) change factor [1, 8]: −0.04
Requiem (AF001433) change factor [1, 8]: upregulated
SMAD1 (U59423) change factor [1, 8]: −0.27
TIEG, EGRα (AF050110) change factor [1, 8]: downregulated; also recorded: downregulation
TLR3; toll-like receptor 3 (U88879) change factor [1, 8]: upregulated
TRIP14; ′2-5′ oligoadenylate synthetase (AJ225089) change factor [1, 8]: −0.07
TSSC3/IPL (AF001294) change factor [1, 8]: downregulation
WNT5A (I20861) change factor [1, 8]: downregulated
collagen type IV, α-5 (COL4A5) (M58526) change factor [1, 8]: decreased
integrin α6 (X53586) change factor [1, 8]: decreased
keratin 15 (J00124) change factor [1, 8]: decreased
number of genes regulated by β-carotene ([1]; β-carotene alone, change factor ≧0.5 or ≦−0.5, p ≦0.05): 381 genes
UV-induced immune suppression ([2]; (Fuller, 1992)): prevents
number of sunburn cells ([2]; β-carotene supplementation, humans (Garmyn, 1995)): did not alter
sunburn erythema after sun exposure ([2]; β-carotene supplementation, literature studies): alleviates; also recorded: mild reduction; also recorded: mildly reduces
skin carcinogenesis [3]: reduced
β-carotene concentration in medium dropped to [4]: approximately 50%
UVA-induced GADD34 transcription (QRT-PCR) (HaCaT cells [5]; [9]): enhancement
UVA-induced GADD153 transcription (QRT-PCR) (HaCaT cells [5]; [9]): enhancement
MMP-10 induction by UVA/D2O (HaCaT cells [5]; UVA/D2O): dose-dependently inhibited
integrinα6 transcription (QRT-PCR) (HaCaT cells [5]; irradiated and unirradiated HaCaT cells, 5 hours after irradiation): confirmed downregulation; also recorded: inhibition
UVA induction of MMP-3 (HaCaT cells [6]; (Wertz, 2004)): downregulated
basal and 1O2-induced expression of MMP-1 (HaCaT cells [6]; (Wertz, 2004)): reduced
basal MMP-1 expression (HaCaT cells [6]; unirradiated (Wertz, 2004)): mildly reduces
basal expression of MMP-10, QRT-PCR in independent experiments (HaCaT cells [6]; unirradiated (Wertz, 2004)): confirmed
